According to patent US20220306647A1, “NOVEL INDOLE-2-CARBOXAMIDES ACTIVE AGAINST THE HEPATITUS B VIRUS (HBV)” (AICURIS GMBH & CO. KG, priority 2019, published 2022):

Target: T1, HBV core protein (C-terminal truncated core protein, 149 amino acids of the N-terminal assembly domain, BODIPY-FL labelled) (UniProt P03146)
T1 construct: fused on or other part: A single cysteine added after residue 149, at position 150; It carries the BODIPY-FL maleimide label
Test: Biochemical capsid assembly assay (fluorescence quenching)
Conditions: assembly started with NaCl, fluorescence read after 6 min, read-out: Assembly activity
Procedure: The screening for assembly effector activity was done based on a fluorescence quenching assay published by Zlotnick et al. (2007). The C-terminal truncated core protein containing 149 amino acids of the N-terminal assembly domain fused to a unique cysteine residue at position 150 and was expressed in E. coli using the pET expression system (Merck Chemicals, Darmstadt). Purification of core dimer protein was performed using a sequence of size exclusion chromatography steps. In brief, the cell pellet from 1 L BL21 (DE3) Rosetta2 culture expressing the coding sequence of core protein cloned NdeI/XhoI into expression plasmid pET21b was treated for 1 h on ice with a native lysis buffer (Qproteome Bacterial Protein Prep Kit; Qiagen, Hilden). After a centrifugation step the supernatant was precipitated during 2 h stirring on ice with 0.23 g/ml of solid ammonium sulfate. Following further centrifugation the resulting pellet was resolved in buffer A (100 mM Tris, pH 7.5; 100 mM NaCl; 2 mM DTT) and was subsequently loaded onto a buffer A equilibrated CaptoCore 700 column (GE HealthCare, Frankfurt). The column flow through containing the assembled HBV capsid was dialyzed against buffer N (50 mM NaHCO3 pH 9.6; 5 mM DTT) before urea was added to a final concentration of 3M to dissociate the capsid into core dimers for 1.5 h on ice. The protein solution was then loaded onto a 1L Sephacryl S300 column. After elution with buffer N core dimer containing fractions were identified by SDS-PAGE and subsequently pooled and dialyzed against 50 mM HEPES pH 7.5; 5 mM DTT. To improve the assembly capacity of the purified core dimers a second round of assembly and disassembly starting with the addition of 5 M NaCl and including the size exclusion chromatography steps described above was performed. From the last chromatography step core dimer containing fractions were pooled and stored in aliquots at concentrations between 1.5 to 2.0 mg/ml at −80° C.
Immediately before labelling the core protein was reduced by adding freshly prepared DTT in a final concentration of 20 mM. After 40 min incubation on ice storage buffer and DTT was removed using a Sephadex G-25 column (GE HealthCare, Frankfurt) and 50 mM HEPES, pH 7.5. For labelling 1.6 mg/ml core protein was incubated at 4° C. and darkness overnight with BODIPY-FL maleimide (Invitrogen, Karlsruhe) in a final concentration of 1 mM. After labelling the free dye was removed by an additional desalting step using a Sephadex G-25 column. Labelled core dimers were stored in aliquots at 4° C. In the dimeric state the fluorescence signal of the labelled core protein is high and is quenched during the assembly of the core dimers to high molecular capsid structures. The screening assay was performed in black 384 well microtiter plates in a total assay volume of 10 μl using 50 mM HEPES pH 7.5 and 1.0 to 2.0 μM labelled core protein. Each screening compound was added in 8 different concentrations using a 0.5 log-unit serial dilution starting at a final concentration of 100 μM, 31.6 μM or 10 μM, In any case the DMSO concentration over the entire microtiter plate was 0.5%. The assembly reaction was started by the injection of NaCl to a final concentration of […] which induces the assembly process to approximately 25% of the maximal quenched signal. 6 min after starting the reaction the fluorescence signal was measured using a Clariostar plate reader (BMG Labtech, Ortenberg) with an excitation of 477 nm and an emission of 525 nm. As 100% and 0% assembly control HEPES buffer containing 2.5 M and 0 M NaCl was used. Experiments were performed thrice in triplicates. EC50 values were calculated by non-linear regression analysis using the Graph Pad Prism 6 software (GraphPad Software, La Jolla, USA).

T1 sequence (P03146 whole entry, the tested form may be a part): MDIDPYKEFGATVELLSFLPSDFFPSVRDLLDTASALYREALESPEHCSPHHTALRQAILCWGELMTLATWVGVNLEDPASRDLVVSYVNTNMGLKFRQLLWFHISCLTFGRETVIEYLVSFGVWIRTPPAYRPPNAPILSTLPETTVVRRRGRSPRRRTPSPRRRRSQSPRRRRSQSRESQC

**Q.** With `Cc1cc(F)cc2[nH]c(C(=O)N3CCc4n[nH]c(C(=O)N(C)C5(c6ccc(C(=O)O)cc6)CC5)c4C3)cc12` [Example 67, 4-{1-[N-methyl-5-(6-fluoro-4-methyl-1H-indole-2-carbonyl)-2H,4H,5H,6H,7H-pyrazolo[4,3-c]pyridine-3-amido]cyclopropyl}benzoic acid] as the compound, how does the IC50 read?
**A.** < 5 µM

**Q.** With `CN(C(=O)c1cnn2c1CN(C(=O)c1cc3ccccc3[nH]1)CC2)C1(COc2ccc(C(=O)O)cc2Cl)CC1` [Example 101, 3-chloro-4-({1-[N-methyl-5-(1H-indole-2-carbonyl)-4H,5H,6H,7H-pyrazolo[1,5-a]pyrazine-3-amido]cyclopropyl}methoxy)benzoic acid] as the compound, how does the IC50 read?
**A.** < 5 µM

**Q.** For `O=C(NC1(COC(F)F)CC1)c1onc2c1CN(C(=O)c1cc3c(F)c(F)ccc3[nH]1)CC2` [Example 143, 5-(4,5-difluoro-1H-indole-2-carbonyl)-N-{1-[(difluoromethoxy)methyl]cyclopropyl}-4H,5H,6H,7H-[1,2]oxazolo[4,3-c]pyridine-3-carboxamide], which IC50 is on record?
**A.** < 5 µM

**Q.** `C[C@@H](NC(=O)c1onc2c1CN(C(=O)c1cc3cc(F)c(F)cc3[nH]1)CC2)C(F)(F)F` [Example 115, 5-(5,6-difluoro-1H-indole-2-carbonyl)-N-[(2R)-1,1,1-trifluoropropan-2-yl]-4H,5H,6H,7H-[1,2]oxazolo[4,3-c]pyridine-3-carboxamide] was tested. Which IC50 did it give?
**A.** < 5 µM

**Q.** With `CN(C(=O)c1[nH]nc2c1CN(C(=O)c1cc3c(F)c(F)ccc3[nH]1)CC2)C1(c2ccc(C(=O)O)cc2)CC1` [Example 65, 4-{1-[N-methyl-5-(4,5-difluoro-1H-indole-2-carbonyl)-2H,4H,5H,6H,7H-pyrazolo[4,3-c]pyridine-3-amido]cyclopropyl}benzoic acid] as the compound, how does the IC50 read?
**A.** < 5 µM

**Q.** For `CN(C(=O)c1[nH]nc2c1CN(C(=O)c1cc3ccccc3[nH]1)CC2)C1(c2ccc(C(=O)O)cc2)CC1` [Example 44, 4-{1-[N-methyl-5-(1H-indole-2-carbonyl)-2H,4H,5H,6H,7H-pyrazolo[4,3-c]pyridine-3-amido]cyclopropyl}benzoic acid], which IC50 is on record?
**A.** < 5 µM

**Q.** How did the IC50 turn out when `CC1CCn2nc3c(c2C(=O)N1C)CN(C(=O)c1cc2ccccc2[nH]1)CC3` (stereo not shown) [Example 145, 4-(1H-indole-2-carbonyl)-12,13-dimethyl-4,8,9,13-tetraazatricyclo[7.5.0.0^2,7]tetradeca-1,7-dien-14-one] was run?
**A.** < 5 µM

**Q.** How did the IC50 turn out when `O=C(c1cc2ccccc2[nH]1)N1CCc2nn3c(c2C1)C(=O)N(CC(F)(F)F)C1(CC3)CC1` [Example 148, 4′-(1H-indole-2-carbonyl)-13′-(2,2,2-trifluoroethyl)-4′,8′,9′,13′-tetraazaspiro[cyclopropane-1,12′-tricyclo[7.5.0.0^2,7]tetradecane]-1′,7′-dien-14′-one] was run?
**A.** < 5 µM

**Q.** `O=C(O)c1ccc(C2(NC(=O)c3cnn4c3CN(C(=O)c3cc5ccccc5[nH]3)CC4)CC2)cc1` [Example 137, 4-{1-[5-(1H-indole-2-carbonyl)-4H,5H,6H,7H-pyrazolo[1,5-a]pyrazine-3-amido]cyclopropyl}benzoic acid] was tested. Which IC50 did it give?
**A.** < 5 µM

**Q.** Which IC50 does the source give for `Cc1c(F)ccc2[nH]c(C(=O)N3CCc4n[nH]c(C(=O)N(C)C5(c6ncc(C(=O)O)cn6)CC5)c4C3)cc12` [Example 72, 2-{1-[N-methyl-5-(5-fluoro-4-methyl-1H-indole-2-carbonyl)-2H,4H,5H,6H,7H-pyrazolo[4,3-c]pyridine-3-amido]cyclopropyl}pyrimidine-5-carboxylic acid] here?
**A.** < 5 µM

**Q.** Which IC50 does the source give for `O=C(c1cc2ccccc2[nH]1)N1CCc2nn3c(c2C1)C(=O)N(CCOC(F)(F)F)C1(CC3)CC1` [Example 146, 4′-(1H-indole-2-carbonyl)-13′-[2-(trifluoromethoxy)ethyl]-4′,8′,9′,13′-tetraazaspiro[cyclopropane-1,12′-tricyclo[7.5.0.0^2,7]tetradecane]-1′,7′-dien-14′-one] here?
**A.** < 5 µM

**Q.** Which IC50 does the source give for `CN(C(=O)c1cnn2c1CN(C(=O)c1cc3ccccc3[nH]1)CC2)C1(c2nccc(C(=O)O)n2)CC1` [Example 36, 2-{1-[N-methyl-5-(1H-indole-2-carbonyl)-4H,5H,6H,7H-pyrazolo[1,5-a]pyrazine-3-amido]cyclopropyl}pyrimidine-4-carboxylic acid] here?
**A.** < 5 µM

**Q.** `O=C(c1cc2c(F)c(F)ccc2[nH]1)N1CCc2nn3c(c2C1)C(=O)N(CCO)C1(CC3)CC1` [Example 120, 4′-(4,5-difluoro-1H-indole-2-carbonyl)-13′-(2-hydroxyethyl)-4′, 8′,9′,13′-tetraazaspiro[cyclopropane-1,12′-tricyclo[7.5.0.0^2,7]tetradecane]-1′,7′-dien-14′-one] was tested. Which IC50 did it give?
**A.** < 5 µM

**Q.** Which IC50 does the source give for `O=C(c1cc2ccccc2[nH]1)N1CCc2noc(C(=O)N3CCC(O)CC34CC4)c2C1` (stereo not shown) [Example 102, 4-[5-(1H-indole-2-carbonyl)-4H,5H,6H,7H-[1,2]oxazolo[4,3-c]pyridine-3-carbonyl]-4-azaspiro[2.5]octan-7-ol] here?
**A.** < 5 µM

**Q.** Which IC50 does the source give for `CN(C(=O)c1n[nH]c2c1CN(C(=O)c1cc3cc(F)c(Cl)cc3[nH]1)CC2)C1(c2ncc(C(=O)O)cn2)CC1` [Example 136, 2-{1-[N-methyl-5-(6-chloro-5-fluoro-1H-indole-2-carbonyl)-2H,4H,5H,6H,7H-pyrazolo[4,3-c]pyridine-3-amido]cyclopropyl}pyrimidine-5-carboxylic acid] here?
**A.** < 5 µM

**Q.** How did the IC50 turn out when `O=C(c1cc2ccccc2[nH]1)N1CCc2nn3c(c2C1)C(=O)N(CC(F)F)C1(CC3)CC1` [Example 147, 13′-(2,2-difluoroethyl)-4′-(1H-indole-2-carbonyl)-4′,8′,9′,13′-tetraazaspiro[cyclopropane-1,12′-tricyclo[7.5.0.0^2,7]tetradecane]-1′,7′-dien-14′-one] was run?
**A.** < 5 µM

**Q.** With `O=C(NC1(COC(F)F)CC1)c1onc2c1CN(C(=O)c1cc3c(Cl)cccc3[nH]1)CC2` [Example 133, 5-(4-chloro-1H-indole-2-carbonyl)-N-{1-[(difluoromethoxy)methyl]cyclopropyl}-4H,5H,6H,7H-[1,2]oxazolo[4,3-c]pyridine-3-carboxamide] as the compound, how does the IC50 read?
**A.** < 5 µM

**Q.** With `CN(C(=O)c1[nH]nc2c1CN(C(=O)c1cc3c(Cl)cccc3[nH]1)CC2)C1(c2ncc(C(=O)O)cn2)CC1` [Example 70, 2-{1-[N-methyl-5-(4-chloro-1H-indole-2-carbonyl)-2H,4H,5H,6H,7H-pyrazolo[4,3-c]pyridine-3-amido]cyclopropyl}pyrimidine-5-carboxylic acid] as the compound, how does the IC50 read?
**A.** < 5 µM

**Q.** Which IC50 does the source give for `O=C(O)c1ccc(C2(NC(=O)c3cnn4c3CN(C(=O)c3cc5ccccc5[nH]3)CC4)CC2)nc1` [Example 19, 6-{1-[5-(1H-indole-2-carbonyl)-4H,5H,6H,7H-pyrazolo[1,5-a]pyrazine-3-amido]cyclopropyl}pyridine-3-carboxylic acid] here?
**A.** < 100 µM

**Q.** With `O=C(O)c1cccc(C2(NC(=O)c3cnn4c3CN(C(=O)c3cc5ccccc5[nH]3)CC4)CC2)c1` [Example 32, 3-{1-[5-(1H-indole-2-carbonyl)-4H,5H,6H,7H-pyrazolo[1,5-a]pyrazine-3-amido]cyclopropyl}benzoic acid] as the compound, how does the IC50 read?
**A.** < 5 µM

**Q.** For `CN(C(=O)c1[nH]nc2c1CN(C(=O)c1cc3c(F)c(F)ccc3[nH]1)CC2)C1(c2ncc(C(=O)O)cn2)CC1` [Example 71, 2-{1-[N-methyl-5-(4,5-difluoro-1H-indole-2-carbonyl)-2H,4H,5H,6H,7H-pyrazolo[4,3-c]pyridine-3-amido]cyclopropyl}pyrimidine-5-carboxylic acid], which IC50 is on record?
**A.** < 5 µM

**Q.** `O=C(O)c1cnc(C2(NC(=O)c3cnn4c3CN(C(=O)c3cc5ccccc5[nH]3)CC4)CC2)nc1` [Example 29, 2-{1-[5-(1H-indole-2-carbonyl)-4H,5H,6H,7H-pyrazolo[1,5-a]pyrazine-3-amido]cyclopropyl}pyrimidine-5-carboxylic acid] was tested. Which IC50 did it give?
**A.** < 100 µM
